# Measurements reported in US20210212320A1, “FRUIT THINNING METHOD WITH 1-AMINOCYCLOPROPANE CARBOXYLIC ACID” (Valent BioSciences LLC, priority 2021, published 2021).
# Tests used:
# Sugar May peaches = assay: Effect of ACC concentration on fruit set of Sugar May peaches, applied at full bloom; type: in vivo, peach
# Text: (§1) Effect of ACC concentration on fruit set (number of fruit per shoot) of Sugar May peaches and Sweet Dream peaches when applied at full bloom
# Sweet Dream peaches = assay: Effect of ACC concentration on fruit set of Sweet Dream peaches, applied at full bloom; type: in vivo, peach
# Text: as §1
# Gala apples = assay: Effect of ACC concentration on modulating fruit set of Gala apples; type: in vivo, apple
# Text: Effect of ACC concentration on modulating fruit set (number of fruit per 100 flower clusters) of Gala apples when applied at petal fall (BBCH67), 10 mm fruit diameter, or 20 mm fruit diameter.
smiles,measurement,setting,value
"NC1(C(=O)O)CC1 [ACC, 1-aminocyclopropane carboxylic acid]",Number of Fruit Per Shoot (fruit set),Sugar May peaches; ACC 300 parts per million,0.7 fruit per shoot
same,Number of Fruit Per Shoot (fruit set),Sugar May peaches; ACC 600 parts per million,0.3 fruit per shoot
same,Number of Fruit Per Shoot (fruit set),Sugar May peaches; ACC 900 parts per million,0.1 fruit per shoot
same,Number of Fruit Per Shoot (fruit set),Sweet Dream peaches; ACC 300 parts per million,12 fruit per shoot
same,Number of Fruit Per Shoot (fruit set),Sweet Dream peaches; ACC 600 parts per million,9 fruit per shoot
same,Number of Fruit Per Shoot (fruit set),Sweet Dream peaches; ACC 900 parts per million,6 fruit per shoot
same,fruit set (number of fruit per 100 flower clusters),"Gala apples; ACC 224 parts per million, applied at 10 mm fruit diameter",125 fruit per 100 flower clusters
same,fruit set (number of fruit per 100 flower clusters),"Gala apples; ACC 224 parts per million, applied at 20 mm fruit diameter",89 fruit per 100 flower clusters
same,fruit set (number of fruit per 100 flower clusters),"Gala apples; ACC 224 parts per million, applied at petal fall (BBCH67)",117 fruit per 100 flower clusters
same,fruit set (number of fruit per 100 flower clusters),"Gala apples; ACC 450 parts per million, applied at 10 mm fruit diameter",108 fruit per 100 flower clusters
same,fruit set (number of fruit per 100 flower clusters),"Gala apples; ACC 450 parts per million, applied at 20 mm fruit diameter",46 fruit per 100 flower clusters
same,fruit set (number of fruit per 100 flower clusters),"Gala apples; ACC 450 parts per million, applied at petal fall (BBCH67)",96 fruit per 100 flower clusters
same,fruit set (number of fruit per 100 flower clusters),"Gala apples; ACC 900 parts per million, applied at 10 mm fruit diameter",63 fruit per 100 flower clusters
same,fruit set (number of fruit per 100 flower clusters),"Gala apples; ACC 900 parts per million, applied at 20 mm fruit diameter",12 fruit per 100 flower clusters
same,fruit set (number of fruit per 100 flower clusters),"Gala apples; ACC 900 parts per million, applied at petal fall (BBCH67)",72 fruit per 100 flower clusters
